Test system: Fathead Minnow (pimephales promelas)
Test: Acute toxicity survival test
Assay type: in vivo
Settings: Flathead Minnows
Method: As a consequence, the “definitive” test gave a more precise LC50 value. LC50 was determined using a log-normal transformation coupled with linear regression between the bracketing no observed effect concentration (NOEC) and lowest observed effect concentration (LOEC). Both the range finding and definitive tests were run on Example 4 and Example 5. Only the ranging finding test was run for TMAC and Example 3.

SMILES: OCC[N+](CCO)(CCO)Cc1ccccc1.[Cl-] [Example 4]
- toxicity to minnows compared with TMAC: much less toxic than TMAC

SMILES: CCOS(=O)(=O)[O-].CC[N+](CCO)(CCO)CCO [Example 5]
- toxicity to minnows compared with TMAC: much less toxic than TMAC
